Source: patent publication US20190262300A1, “COMPOSITION FOR PREVENTING OR TREATING PSORIASIS CONTAINING MONOACETYL DIACYLGLYCEROL COMPOUND” (ENZYCHEM LIFESCIENCES CORPORATION, priority 2016, published 2019)

Experiments:
Assay type in all cases: in vivo, Balb/c mice
[1] = tested on: psoriasis-induced mouse models (IMQ); experiment: H&E histology of back skin (IMQ-induced chronic inflammatory skin disorder); conditions: PLAG 250 mg/kg/day oral day 0 to day 4 with Aldara cream 40 mg/day
Excerpt: (§1) In order to confirm the preventive and therapeutic effects of psoriasis by 1-palmitoyl-2-linoleoyl-3-acetylglycerol (EC-18 or PLAG), imiquimod (hereinafter, referred to as IMQ), which is commonly used to induce skin inflammation i.e., psoriasis, such as infiltration of immune cells, epidermal hyperplasia, etc., was used as a ligand for TLR7 and TLR8 to carry out an experiment using psoriasis-induced mouse models. As an experiment model, 6 to 8-week-old female Balb/c-based mice (KOATECH, Pyeongtaek, Korea) were maintained under a specific pathogen free (SPF) environment and used. PLAG (ENZYCHEM LIFESCIENCES, Korea) was prepared before in vivo or in vitro treatment. Also, statistical analysis was performed using a paired t-test.
(§2) Mice were randomly divided into three groups: control group, psoriasis-induced group, and PLAG group. As the IMQ, Aldara cream (3M Health Care Limited, UK) containing 5% of IMQ was used.
(§3) For 5 days from day 0 to day 4, the control group was treated with vaseline (Unilever, UK) and PBS, the psoriasis-induced group was treated with Aldara cream and PBS, and the PLAG group was treated with Aldara cream and PLAG. Vaseline and Aldara cream were applied to the back of mice at a dose of 40 mg/day, and PBS and PLAG were orally administered at a dose of 250 mg/kg/day. On Day 5, which was the 6th day, the mice were sacrificed.
The thickness of the back skin of the mice of Example 1 was stained with the following H&E (Hematoxylin and Eosin) staining method, and histologically observed and evaluated under an optical microscope (Olympus, Tokyo, Japan) 5. The H&E staining method is as follows:
The back skin tissue of the mice was fixed in a 10% buffered formalin solution for 24 hours, embedded in paraffin and cut into 4 μm-thick sections. After removing paraffin and rehydrating the sections, the sections were stained with hematoxylin and eosin.

[2] = tested on: psoriasis-induced mouse models (IMQ); experiment: Size and weight of spleen in IMQ-induced psoriasis mice; conditions: PLAG 250 mg/kg/day oral day 0 to day 4 with Aldara cream 40 mg/day, vs control group
Excerpt: as §1, §2
For 5 days from day 0 to day 4, the control group was treated with vaseline (Unilever, UK) and PBS, the psoriasis-induced group was treated with Aldara cream and PBS, and the PLAG group was treated with Aldara cream and PLAG. […]
The size of the spleen removed from the mice of Example 1 was measured using a ruler, and the weight was measured using a scale.

[3] = tested on: neutrophil recruitment in the back skin; experiment: Immunohistochemical staining of neutrophil recruitment in back skin; conditions: PLAG 250 mg/kg/day oral day 0 to day 4 with Aldara cream 40 mg/day
Excerpt: as §1, §2
as §3, with “sacrificed. […]” for “sacrificed.”

[4] = tested on: psoriasis-induced mouse models (IMQ); experiment: Keratinization and thickness of back skin of IMQ-induced psoriasis mice; conditions: vs psoriasis-induced group
Excerpt: as §1
Mice were randomly divided into three groups: control group, psoriasis-induced group, and PLAG group. As the IMQ, Aldara cream (3M Health Care Limited, UK) containing 5% of IMQ was used. […]
In order to investigate whether PLAG prevents the progression of psoriasis, psoriasis was induced using IMQ cream (Aldara cream) as in Example 1. […] Subsequently, for the measurement of thickness of back skin, the back skin was removed, and the thickness of the removed back skin was measured using a caliper. The thickness of the measured back skin is shown in the graph of FIG. 3(B).

IL-17 = experiment: Immunohistochemical staining of IL-17 expression in IMQ-induced psoriatic skin; conditions: PLAG 250 mg/kg/day oral day 0 to day 4 with Aldara cream 40 mg/day; back skin
Excerpt: as §1, §2
as §3, with “sacrificed. […]” for “sacrificed.”

Compound: CCCCC/C=C\C/C=C\CCCCCCCC(=O)OC(COC(C)=O)COC(=O)CCCCCCCCCCCCCCC (racemic) [PLAG, 1-palmitoyl-2-linoleoyl-3-acetyl-rac-glycerol]
- hair follicles (H&E) [1]: present as in the control group
- neutrophils between the stratum corneum (H&E) [1]: not found
- thicknesses of the stratum corneum and the epidermis (H&E) ([1]; vs psoriasis-induced group): remarkably reduced
- size of spleen ([2]; ruler): increased compared to the control group
- weight of spleen ([2]; scale): maintained the same as the weight of spleen of the control group
- level of neutrophil recruitment in back skin (NIMP-R14 immunohistochemistry) [3]: significantly lower than that in the psoriasis-induced group
- thickness of the back skin (caliper) ([4]; PLAG 250 mg/kg/day oral day 0 to day 4 with Aldara cream 40 mg/day, day 5): significantly decreased
- keratosis on the back of the mice ([4]; PLAG 250 mg/kg/day oral day 0 to day 4 with Aldara cream (5% IMQ) 40 mg/day, photographed day 5): remarkably alleviated
- IL-17 expression in the skin blood vessels (immunohistochemistry) (IL-17): significantly inhibited
